Experimental data from patent publication US7666893B2, “Method for treatment of neurodegenerative disorders” (MedDEV Inc., priority 2006, dated 2010).

What was measured:
Format in all cases: in vivo, human
[1] = system: fibromyalgia patient; test: Treatment of fibromyalgia patient via transdermal patch; conditions: Example Five
Source text: (§1) Accordingly, material suitable for transdermal application can be prepared using a 1:1000 dilution of methyl 4-imidazolecarboxylate CAS number 17325-26-7, available from Sigma-Aldrich Corporation), combined with a pluronic lecithin organogel transdermal penetration enhancing vehicle, with hydrochloric acid being added to maintain the pH of the solution that or below 3. The resultant mixture may be dried and deposited on or applied to a suitable adhesive backing to form a transdermal patch, covered with quick release paper or other layer for protection prior to use.
A person who has been suffering from fibromyalgia for 10 years was treated in accordance with the method of the present invention. […] The patient has reported only two incidences of increased fatigue, which lasted only one day per incidence, and these incidences were preceded by very stressful life events.

[2] = system: male MS patients with erectile dysfunction; test: Sexual function in male MS patients with erectile dysfunction; conditions: Example Six
Source text: Two male MS patients, a person and a person, experienced decreased libido, decreased penile sensation, and erectile dysfunction. […] These improvements in sexual function have persisted while continuing on the treatment. […] Their ability to achieve a full erection numerous times following repeated ejaculations was restored the same day that they resumed the treatment.

[3] = system: patient with major clinical depression; test: Treatment of patient with major clinical depression via transdermal patch; conditions: Example Seven
Method: A person with a family history of depression and has a personal history of major clinical depression. Hospitalized in 1975 and again in 1990 with major episodes of depression including extreme suicidal ideations. Numerous medications were tried to help stabilize their condition. Since 1990 they have been taking 25 mg to 75 mg of nortriptyline to manage their depression and reports having to increase the dose to has high as 100 mg during stressful life events.
The patient reported suffering from the following symptoms despite taking nortriptyline:
They also reported very vivid dreams and they were able to recall the details of their dreams easily. […] Their constipation and dry mouth have resolved as well. They also have reported that their hair is regaining its original pigment and that their eyebrows are coming in darker and thicker resembling their younger years.

[4] = system: multiple sclerosis (MS) patients; test: Treatment of multiple sclerosis patients via transdermal patch; conditions: Example Three, four MS patients (2 female, 2 male), 0.2 mcg transdermal patch one day, two days off, repeated
[5] = system: multiple sclerosis (MS) patients; test: as above; conditions: for outcome on MS symptoms with cyclic dosing schedule: repeated
Source text: as §1
The following illustrative examples relate to actual practice of the invention described above in the treatment of multiple sclerosis.
A person who had been suffering from multiple sclerosis (MS) for 51 years was treated in accordance with the method of the present invention. The patient suffered from debilitating intention tremors in their hands, poor balance, garbled speech, right foot tingling and right leg weakness, left foot tingling and weakness. Within 60 minutes of applying the first dose of 0.125 mcg methyl 4-imidazolecarboxylate via transdermal patch application, the intention tremors were alleviated, but noted some waxing and waning of other symptoms throughout the first day of treatment. […] After the third consecutive day of treatment, the patient had no symptoms of MS and they were able to remain free of symptoms for the next 36 hours without applying the treatment of the present invention. After 36 hours of not administering the treatment, they reported that their MS symptoms were returning, they then applied 0.125 mcg methyl 4-imidazolecarboxylate via transdermal patch and their MS symptoms were alleviated within 30 minutes of applying the treatment. They administered 0.125 mcg methyl 4-imidazolecarboxylate per day for next 2 consecutive days and was again able to remain free of all of the MS symptoms while wearing the transdermal patch containing the treatment dose and then remained free of symptoms for the following 2 days not administering the treatment.
A person who has been suffering from multiple sclerosis (MS) for 21 years was treated in accordance with the method of the present invention. The patient suffered from left foot tingling and numbness, left hand tingling and numbness, left leg weakness, slurred speech, cognitive impairment, fatigue, facial/jaw pain, and heaviness in limbs. […] The patient remained free of all MS symptoms with the administration of 0.15 mcg methyl 4-imidazolecarboxylate per day for the next two consecutive days. The patient was able to remain free of MS symptoms for 36 hours following the two consecutive days of application of present invention without use of treatment. After 36 hours of not using the present invention treatment, the patient experienced left foot tingling. The patient then applied 0.15 mcg methyl 4-imidazolecarboxylate per day via transdermal patch for two consecutive days and all MS symptoms alleviated. The patient was able to remain free of all MS symptoms for the next 4 days without applying the present invention treatment. […] The following 5 days the patient remained free of all MS symptoms without administering treatment of present invention.
Each patient has continued to maintain such improvements in their symptoms of MS by applying 0.2 mcg methyl 4-imidazolecarboxylate via transdermal patch for one day followed by two consecutive days without administering treatment and then repeating such dosing schedule.

[6] = system: patients; test: Transdermal dosage range and regimen observations in patients
Method: As will be described in the following examples, dosages in the range from about 0.1 mcg to about 0.2 mcg per day have been found generally preferable, with some variation on a patient by patient basis. […] While the mechanism behind this is not fully understood, it is believed that the effectiveness of the periodic regimen, with a resting period of about 48 hours between applications, may be due to an associated half life period (within the body of the patient) of the material or an agent that is produced by the material.

[7] = 0.2 mcg transdermal patch one day on, two days off

COC(=O)c1cnc[nH]1 [methyl 4-imidazolecarboxylate]
maintained outcome with cyclic dosing schedule [1, 7]: remained free of pain, and improved mental clarity
incidences of increased fatigue during treatment ([1]; each lasting one day, preceded by very stressful life events): two
patient-reported effect within hours of first dose ([1]; person with fibromyalgia, first dose 0.2 mcg): decreased pain, decreased fatigue and improved mental clarity
effect of stopping the treatment for one week ([2]; patient, restored the same day treatment resumed): decrease in libido and inability in achieving a full erection
time to achieve a full erection after first ejaculation ([2]; two male MS patients, 0.2 mcg): 1 to 3 min
patient-reported sexual function within three days of first administration ([2]; two male MS patients, 0.2 mcg (entry two)): increased libido, full erections, increased penile sensation
symptoms of depression while continuing on the treatment [3, 7]: remained free of all symptoms of depression
patient-reported effect the first day of treatment ([3]; person, 0.2 mcg): increased energy
patient-reported change in MS symptoms (bladder function, fatigue, tingling and numbness, balance, cognition and memory, walking, sleep) [4]: improvement in their MS symptoms
MS symptoms by the second day of treatment ([5]; Example One, 0.125 mcg per day, transdermal patch): All MS symptoms were alleviated
time to alleviation of returned MS symptoms after re-applying treatment ([5]; Example One, 0.125 mcg transdermal patch after 36 hours without treatment): ≤ 30 min
outcome on MS symptoms with cyclic dosing schedule ([5]; Example One, 0.2 mcg one day followed by 2 consecutive days without treatment): successfully alleviated all of the MS symptoms
time to alleviation of intention tremors after first dose ([5]; Example One, MS patient, first dose 0.125 mcg, transdermal patch): ≤ 60 min
time free of symptoms not administering the treatment ([5]; Example One, after re-application and 2 further consecutive days of 0.125 mcg per day): 2 days
time free of symptoms without applying the treatment ([5]; Example One, after third consecutive day of 0.125 mcg treatment): 36 h
effect on returned left foot tingling after single application ([5]; Example Two, 0.15 mcg transdermal patch on fifth day without treatment): symptoms resolved immediately
outcome on MS symptoms with cyclic dosing schedule ([5]; Example Two, 0.2 mcg transdermal patch one day, 2 consecutive days without treatment): continued to remain free of all MS symptoms
time to alleviation of all MS symptoms after first dose ([5]; Example Two, MS patient, first dose 0.15 mcg, transdermal patch): ≤ 30 min
time free of all MS symptoms without applying treatment ([5]; Example Two, after second course of 0.15 mcg per day for two consecutive days): 4 days
time free of MS symptoms without use of treatment ([5]; Example Two, following first dose and two consecutive days of 0.15 mcg per day): 36 h
time free of all MS symptoms without administering treatment ([5]; Example Two, following single 0.15 mcg application): 5 days
effectiveness of periodic regimen ([6]; approximately 0.2 mcg once every three days): especially effective for the majority of patients
adverse effect at high dosages ([6]; transdermal, dosages above approximately 3.0 mcg per day): negative cognitive effects, in a form of mental haziness or sleepiness
effect observed at low dosages ([6]; transdermal, dosages below about 0.01 mcg per day): negligible effect

CNCCC=C1c2ccccc2CCc2ccccc21 [nortriptyline, reference compound]
patient-reported side effects ([3]; 25 mg to 75 mg (up to 100 mg) nortriptyline since 1990): dry mouth and constipation
